Experiments:
androgen receptor [1] = target: T1, androgen receptor (Homo sapiens, UniProt P10275); assay: pGL3-PSA-luc androgen receptor luciferase reporter assay in HEK293; assay type: cell-based; settings: PSA promoter construct, HEK293, 10 nM
T1 construct: the full length human wild type androgen receptor cDNA expression plasmid pAR0; expressed in transfected cells; host or cells: HEK293
T1 sequence (P10275 1-920): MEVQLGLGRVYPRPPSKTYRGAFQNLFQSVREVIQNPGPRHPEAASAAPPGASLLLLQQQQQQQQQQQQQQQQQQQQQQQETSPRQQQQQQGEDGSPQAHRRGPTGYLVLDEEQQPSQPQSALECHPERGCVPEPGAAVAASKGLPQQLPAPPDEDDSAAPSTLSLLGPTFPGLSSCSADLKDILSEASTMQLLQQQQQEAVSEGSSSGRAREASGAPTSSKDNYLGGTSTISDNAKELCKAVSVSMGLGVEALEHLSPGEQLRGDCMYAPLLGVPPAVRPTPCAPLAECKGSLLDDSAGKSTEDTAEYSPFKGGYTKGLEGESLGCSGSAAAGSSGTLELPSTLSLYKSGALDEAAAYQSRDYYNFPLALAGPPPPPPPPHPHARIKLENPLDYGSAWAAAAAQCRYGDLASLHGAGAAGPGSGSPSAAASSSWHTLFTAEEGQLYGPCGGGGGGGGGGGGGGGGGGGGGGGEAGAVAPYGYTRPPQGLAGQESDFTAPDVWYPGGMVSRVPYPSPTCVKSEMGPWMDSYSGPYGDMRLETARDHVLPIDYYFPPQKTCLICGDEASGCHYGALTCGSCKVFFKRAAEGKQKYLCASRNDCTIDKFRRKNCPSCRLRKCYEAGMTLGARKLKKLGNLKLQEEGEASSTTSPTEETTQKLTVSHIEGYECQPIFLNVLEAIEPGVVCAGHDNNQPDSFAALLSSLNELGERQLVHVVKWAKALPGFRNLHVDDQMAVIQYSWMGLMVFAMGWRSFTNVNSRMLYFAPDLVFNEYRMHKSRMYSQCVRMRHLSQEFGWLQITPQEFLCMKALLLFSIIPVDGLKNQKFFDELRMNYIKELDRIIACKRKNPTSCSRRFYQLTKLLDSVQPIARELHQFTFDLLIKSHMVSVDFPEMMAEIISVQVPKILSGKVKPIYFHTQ
Method: (§1) Both MMTV-luc and pGL3-PSA-luc plasmids contain Androgen Receptor binding site which recruits androgen receptor and its co-activator to recruit RNA Pol II to the promoter region.
(§2) Cells were then lysed and assayed for luciferase activity using Dual-Luciferase® Reporter Assay System (Promega, Madison, Wis., USA), the experiment was performed in triplicate and repeated at least four times.

androgen receptor [2] = target: T1, androgen receptor; assay: MMTV-luc androgen receptor luciferase reporter assay in HEK293; assay type: cell-based; settings: MMTV promoter construct, HEK293, 10 nM
Method: as §1, §2

[3] = system: androgen-dependent LNCaP cells; assay: CCK-8 cell viability assay, LNCaP; assay type: cell-based, human; settings: 0-100 μM, 24 and 48 hours
Method: (§3) To determine the cell viability effect of nano-Se in human prostate cancer cells, androgen-dependent LNCaP cells and androgen-independent DU145 cells were treated with 0, 1, 5, 10, 50 and 100 μM of Nano-Se particle suspensions for 24 and 48 hrs respectively.
(§4) LNCaP (Lot#1735217), and DU-145 (Lot#1145858) human prostate cancer cell lines were purchased from the American Type Culture Collection (ATCC, Manassas, Va., USA). Cells were maintained in 1640 culture medium (Invitrogen Life Technologies, USA) supplemented with 10% (v/v) fetal bovine serum and antibiotics.
For cell viability assay, cells were seeded into 96-well plates at a density of 1×10^4 cells/well, and 40-50% confluent cells were subsequently treated with nano-Se nanoparticles (1 to 100 μM) or distilled water for 24 or 48 hrs respectively. Treated cells were then collected and measured by Cell Counting Kit-8 (CCK-8) system (Dojindo Laboratory, Kumamoto, Japan). Briefly, CCK-8 solution (10 μl per 100 ul of medium in each well) was added, the plates were then incubated at 37° C. for 1 hour, and the absorbance of each well was read at 450 nm using a microplate reader. Values were shown as means±SE of quadruplicated determinations of a representative experiment (repeated three times). Differences between groups were analyzed using Student's test with significance assumed at p<0.05. […]

[4] = system: androgen-independent DU145 cells; assay: CCK-8 cell viability assay, DU145; assay type: cell-based, human
Method: as §3, §4
(§5) For cell viability assay, cells were seeded into 96-well plates at a density of 1×10^4 cells/well, and 40-50% confluent cells were subsequently treated with nano-Se nanoparticles (1 to 100 μM) or distilled water for 24 or 48 hrs respectively. Treated cells were then collected and measured by Cell Counting Kit-8 (CCK-8) system (Dojindo Laboratory, Kumamoto, Japan). Briefly, CCK-8 solution (10 μl per 100 ul of medium in each well) was added, the plates were then incubated at 37° C. for 1 hour, and the absorbance of each well was read at 450 nm using a microplate reader. Values were shown as means±SE of quadruplicated determinations of a representative experiment (repeated three times). Differences between groups were analyzed using Student's test with significance assumed at p<0.05. All statistical analyses were performed using Origin75 software.
Cells were treated with 0-100 μM nano-Se nanoparticles or MSA for 24 and 48 hours. Cells were then collected and cell viabilities were assayed. The data shown are mean±standard of three samples for each treatment. Differences between groups were analyzed using Student's test with significance assumed at p<0.05.

[5] = system: human lung carcinoma cell line A549 cells; assay: Cell viability assay, A549; assay type: cell-based
Method: as §5
(§6) In reference to FIGS. 3A and 3B, 4A and 4B, 5A and 5B, 6A and 6B, the effects of nano-Se nanoparticles on cell viability are compared to that of MSA in androgen dependent prostate cancer line LNCaP cells, androgen independent prostate cancer line DU145 cells, human breast cancer cell line MCF-7 cells, human lung carcinoma cell line A549 cells.
(§7) Cells were treated with 0-100 μM nano-Se nanoparticles or MSA for 24 and 48 hours. […] Differences between groups were analyzed using Student's test with significance assumed at p<0.05.

[6] = system: human breast cancer cell line MCF-7 cells; assay: Cell viability assay, MCF-7; assay type: cell-based
Method: as §5, §6, §7

Compound	androgen receptor dependent promoter activity (luciferase) (androgen receptor [1])	androgen receptor dependent promoter activity (luciferase) (androgen receptor [2])	effect on cell viability [3]	effect on cell viability ([4]; DU145, 0-100 μM, 24 and 48 hours, dose and time-dependent)	effect on cell viability, MSA versus nano-Se ([4]; DU145, 24 hour treatment, all measured concentrations)	effect on cell viability, nano-Se versus MSA ([4]; DU145, 48 hour treatment)	effect on cell viability ([5]; A549, 0-100 μM, 24 and 48 hours, dose and time-dependent)	potency in decreasing cell viability, MSA versus nano-Se ([5]; A549, 24 and 48 hours)	effect on cell viability ([6]; MCF-7, 0-100 μM, 24 and 48 hours, dose and time-dependent)	potency in decreasing cell viability, MSA versus nano-Se ([6]; MCF-7, 24 and 48 hours)
C[C@]1(O)CC[C@H]2[C@@H]3CCC4=CC(=O)CCC4=C3C=C[C@@]21C [R1881]	induced androgen receptor dependent promoter activity	induced androgen receptor dependent promoter activity								
C[Se](=O)O [MSA, Methylseleninic acid]			decreased cell viability	decreased cell viability	more significant	comparable	decreased cell viability	more potent in decreasing cell viability	decreased cell viability	more potent in decreasing cell viability

— patent US20110262564A1, “Treatment of Cancer with Selenium Nanoparticles” (priority 2010, published 2011)
